Data set [1] has as its system Pseudomonas aeruginosa ATCC 25619. In words: MIC on agar plate by two fold dilution (Japan Society of Chemotherapy) against Pseudomonas aeruginosa ATCC 25619. The data set is classed as cell-based. Particulars: ATCC25619, P. aeruginosa ATCC 25619, in 0.01N-sodium hydrogen carbonate, read-out: minimal inhibitory concentration (MIC). An excerpt: By altering the groups with the followings, the activity varied as below (AT=2-amino-4-thiazolyl).

The subject of data set [2] is Pseudomonas aeruginosa SR 24. In words: MIC against Pseudomonas aeruginosa SR 24. The data set is classed as cell-based. Particulars: SR24.
The subject of data set [3] is Pseudomonas aeruginosa SR 5018. In words: MIC against ofloxacin resistant Pseudomonas aeruginosa SR 5018. The class given is cell-based.
In data set [4] the test system is Pseudomonas aeruginosa SR 24. Description: 50% effective dose for preventing mouse from death caused by Pseudomonas aeruginosa SR 24. The class given is in vivo. On the procedure: The 50% effective dose of compound (I) where R^1 is 2-(2-amino-4-thiazolyl)-2-(1-carboxy-1-methylethoxy)imino-acetamido, R^2 is hydrogen, R^3 is methyl, R^4 R^5 is 3,4-dihydroxybenzoyl, R^6 combined with Y^- is a negative charge, X is sulfur for preventing mouse from the death caused by Pseudomonas aeruginose SR 24 is 1.25 mg/kg.

Data set [5] relates to Pseudomonas aeruginosa SR 4967. In words: ED50 against Pseudomonas aeruginosa SR 4967. The data set is classed as in vivo. Particulars: SR4967, mouse.
Data set [6] has as its system Serratia marcescens A 13880. In words: ED50 against Serratia marcescens A 13880. The class given is in vivo. The settings on record: A13880, mouse.
For another data set, the system named is Morgania morganii. In words: antibacterial activity against clinically isolated Morgania morganii. The data set is classed as cell-based.
The next data set deals with Enterobacter cloacae. Description: antibacterial activity against clinically isolated Enterobacter cloacae. The class given is cell-based.
Data set [7] is described as follows: antibacterial activity against clinically isolated Clostridium freundii. The class given is cell-based.
The nature of data set [8]: urinary and bile juice recovery after subcutaneous injection. The settings on record: urine and bile, sc; during 2 hours after subcutaneous injection (20 mg/kg); read-out: urinary and bile juice recovery (total). The data set is classed as in vivo.
The nature of data set [9]: safety test, intravenous injection, mouse. The data set is classed as in vivo. Particulars: dose up to 1 g/kg.
Data set [10] is described as follows: safety test, intravenous injection, rabbit. The data set is classed as in vivo. Particulars: dose up to 1 g/kg.

≈ marks a conversion by molar mass, not a printed value. Where two headings read alike, the source gives them in different places. A value given as a limit tells only on which side of the number the result lay.

Take `C[N+]1(CC2=C(C(=O)[O-])N3C(=O)[C@@H](NC(=O)Cc4ccccc4)[C@H]3SC2)CCN(C(=O)c2ccc(O)c(O)c2)CC1` [No. 2]: the MIC in [1] was above 100 µg/mL.

Take `COc1cc(C(=O)N2CC[N+](C)(CC3=C(C(=O)[O-])N4C(=O)[C@@H](NC(=O)C(=NOC(C)(C)C(=O)O)c5csc(N)n5)[C@H]4SC3)CC2)ccc1O` [No. 14]: in [1], the MIC amounted to 3.1 µg/mL (≈ 4.32 µM).

Consider `CO/N=C(\C(=O)N[C@@H]1C(=O)N2C(C(=O)[O-])=C(C[N+]3(C)CCN(CC(=O)c4ccc(O)c(O)c4)CC3)CS[C@H]12)c1csc(N)n1` [No. 6], for which, in data set [1], the MIC was determined as 0.05 µg/mL (≈ 0.0774 µM).

Regarding `CC(C)(O/N=C(\C(=O)N[C@@H]1C(=O)N2C(C(=O)[O-])=C(C[N+]3(C)CCN(C(=O)c4ccc(O)c(O)c4Cl)CC3)CS[C@H]12)c1csc(N)n1)C(=O)O` [No. 9, 7β-[2-(2-aminothiazol-4-yl)-2-(1-carboxy-1-methylethoxyimino)acetamido]-3-[4-(2-chloro-3,4-dihydroxybenzoyl)-1-methylpiperazinio-1-yl]methyl-3-cephem-4-carboxylate], in [1], the MIC is 0.02 µg/mL (≈ 0.0271 µM).

In the case of `CC(C)(O/N=C(\C(=O)N[C@@H]1C(=O)N2C(C(=O)[O-])=C(C[N+]3(C)CCN(C(=O)c4ccc(O)c(O)c4)CC3)CS[C@H]12)c1csc(N)n1)C(=O)O` [No. 8, 7β-[2-(2-amino-4-thiazolyl)-2-(1-carboxy-1-methylethoxyimino)acetamido]-3-[4-(3,4-dihydroxybenzoyl)-1-methylpiperazinio-1-yl]methyl-3-cephem-4-carboxylate], the MIC in data set [2] worked out at 0.1 µg/mL (≈ 0.142 µM); in [3] (SR5018, ofloxacin resistant Pseudomonas aeruginosa SR 5018) it was 0.05 µg/mL (≈ 0.071 µM). Moreover, the “times more potent (MIC) than BO-1341” value in [3] (vs 0.4 γ/ml of BO-1341, P. aeruginosa SR 5018) was 8 times. Further, the “times more potent (MIC) than E-1040” value in [3] (vs 6.3 γ/ml of E-1040, P. aeruginosa SR 5018) worked out at 126 times. In [3] (vs 25 γ/ml of ceftazidime, P. aeruginosa SR 5018), the “times more potent (MIC) than ceftazidime” value is 500 times. In addition, the ED50 in data set [4] (Pseudomonas aeruginosa, SR24, read-out: 50% effective dose for preventing mouse from death) is 1.25 mg/kg; in [4] (SR24, mouse, Pseudomonas aeruginosa SR 24, read-out: ED50 (mouse)), 1.41 mg/kg; in data set [5], 4.91 mg/kg; in [6] it was 0.28 mg/kg. Besides, the “times more potent (ED50) than reference 3-(3,4-dihydroxybenzyl) compound” value in data set [4] (vs 3.4 mg/kg of the reference, P. aeruginosa SR 24) turned out to be 2.4 times. For the same compound, the “times more potent (ED50) than reference 3-(dihydroxyphenylthiadiazolylthio)methyl compound” value in [4] (vs 16.3 mg/kg of the reference, P. aeruginosa SR 24) is reported as 11.6 times. The antibacterial activity result (with Morgania morganii; with Enterobacter cloacae; in data set [7]) was “high antibacterial activity” in each case. For the same compound, the dose excreted at 2 h in [8] was determined as 70.4%. Besides, the death entry in data set [9] and in data set [10] was “did not show death” each time.

Consider `C=C(O/N=C(\C(=O)N[C@@H]1C(=O)N2C(C(=O)[O-])=C(C[N+]3(C)CCN(C(=O)c4ccc(O)c(O)c4)CC3)CS[C@H]12)c1csc(N)n1)C(=O)O` [No. 17], for which the MIC in data set [1] was found to be 0.05 µg/mL (≈ 0.0727 µM).

As for `CO/N=C(\C(=O)N[C@@H]1C(=O)N2C(C(=O)[O-])=C(C[N+]3(C)CCN(C(=O)c4ccc(O)c(O)c4)CC3)CS[C@H]12)c1csc(N)n1` [No. 3], the MIC in data set [1] was determined as 0.05 µg/mL (≈ 0.0792 µM).

As to `CC(C)(O/N=C(\C(=O)N[C@@H]1C(=O)N2C(C(=O)[O-])=C(C[N+]3(C)CCN(C(=O)c4cc(O)c(O)c(Cl)c4)CC3)CS[C@H]12)c1csc(N)n1)C(=O)O` [No. 11], the MIC in data set [1] came out at 0.02 µg/mL (≈ 0.0271 µM).

As for `CO[C@@]1(NC(=O)CSC(F)F)C(=O)N2C(C(=O)[O-])=C(C[N+]3(C)CCN(C(=O)c4ccc(O)c(O)c4)CC3)CO[C@@H]21` [No. 1], in [1], the MIC is above 100 µg/mL.

`CC(C)(O/N=C(\C(=O)N[C@@H]1C(=O)N2C(C(=O)[O-])=C(C[N+]3(C)CCN(Cc4ccc(O)c(O)c4)CC3)CS[C@H]12)c1csc(N)n1)C(=O)O` [No. 15]: in data set [1], the MIC was determined as 0.1 µg/mL (≈ 0.145 µM).

In the case of `CC(C)(O/N=C(\C(=O)N[C@@H]1C(=O)N2C(C(=O)[O-])=C(C[N+]3(C)CCN(C(=O)c4cc(Cl)c(O)c(O)c4Cl)CC3)CS[C@H]12)c1csc(N)n1)C(=O)O` [No. 13], the MIC in data set [1] was 0.02 µg/mL (≈ 0.0259 µM).

Regarding `CC(C)(O/N=C(\C(=O)N[C@@H]1C(=O)N2C(C(=O)[O-])=C(C[N+]3(C)CCN(C(=O)c4cc(O)c(O)cc4Cl)CC3)CS[C@H]12)c1csc(N)n1)C(=O)O` [No. 12], the MIC in [1] turned out to be 0.02 µg/mL (≈ 0.0271 µM).

The values are drawn from patent US5143910A, “Piperaziniocephalosporins” (Shionogi & Co., Ltd., priority 1989, dated 1992).
